Measurements from patent US20240294522A1 (Lead Discovery Center GmbH, priority 2021, published 2024).

Key:
[1] = target: T1, GRK5 (Homo sapiens, UniProt P34947); experiment: Lance Kinase Activity Assay, GRK5; details: biochemical Lance kinase activity assay; class symbols A-F; read-out: GRK5 LANCE Assay (IC-50)
T1 construct: purchased Thermo Scientific
How it was run: (§1)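 IC50s from sigmoidal dose-response over 0.0025-10 μM compound, with phosphorylated ULight substrate detected by Eu anti-phospho antibody FRET after EDTA quench.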

[2] = target: T2, GRK2 (Homo sapiens, UniProt P25098); experiment: Lance Kinase Activity Assay, GRK2; details: biochemical Lance kinase activity assay; class symbols A-F; read-out: GRK2 LANCE Assay (IC-50)
T2 construct: purchased Thermo Scientific
T2 sequence (P25098 1-689): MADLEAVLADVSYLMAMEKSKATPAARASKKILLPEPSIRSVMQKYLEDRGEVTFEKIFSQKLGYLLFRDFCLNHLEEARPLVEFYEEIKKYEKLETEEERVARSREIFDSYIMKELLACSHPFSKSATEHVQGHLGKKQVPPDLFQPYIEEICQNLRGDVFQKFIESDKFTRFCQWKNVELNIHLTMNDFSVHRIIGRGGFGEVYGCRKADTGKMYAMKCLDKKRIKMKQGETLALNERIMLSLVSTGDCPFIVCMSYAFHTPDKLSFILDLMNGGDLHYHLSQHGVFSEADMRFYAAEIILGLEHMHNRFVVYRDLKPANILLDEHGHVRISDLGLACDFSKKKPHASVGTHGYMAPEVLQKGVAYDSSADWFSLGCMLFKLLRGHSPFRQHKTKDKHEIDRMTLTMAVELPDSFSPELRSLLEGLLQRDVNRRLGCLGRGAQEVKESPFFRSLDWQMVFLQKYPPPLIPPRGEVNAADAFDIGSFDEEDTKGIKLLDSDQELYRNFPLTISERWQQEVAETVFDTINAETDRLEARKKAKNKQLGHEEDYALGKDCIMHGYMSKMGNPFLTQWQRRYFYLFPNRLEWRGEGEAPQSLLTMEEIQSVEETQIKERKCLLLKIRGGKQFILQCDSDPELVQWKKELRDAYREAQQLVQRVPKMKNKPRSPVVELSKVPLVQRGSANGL
How it was run: as §1

[3] = tested on: neonatal rat ventricular cardiac myocytes (NRVCMs); experiment: In vitro cardiomyocyte hypertrophy assay; format: cell-based, Wistar rats; details: inhibition of cellular hypertrophy, NRVCMs stimulated with phenylephrine 20 μM and leukemia inhibitory factor 50 ng/ml, 96 h, read-out: Hypertrophy Assay (IC-50)
Description: 5-6 days old Wistar rats were sacrificed by decapitation and neonatal rat ventricular cardiac myocytes (NRVCMs) were prepared using the Neonatal heart dissociation kit (Miltenyi Biotec) according to the manufacturer's instructions. The cardiac single cell suspension was resuspended in DMEM low glucose medium supplemented with 2% fetal bovine serum (FBS) and 50 μg/ml penicillin/streptomycin. 1500 cells/well were seeded on 0.1% gelatin-coated 384-well plates and incubated in medium at 37° C. and 5% CO2 for 24 h prior to the addition of test compounds to the cells at titrated concentrations. Cellular hypertrophy was then stimulated by adding phenylephrine and leukemia inhibitory factor at final concentrations of 20 μM and 50 ng/ml, respectively, and the cells were incubated for another 96 h. For immunocytochemistry, cells were fixed with 4% formaldehyde on day 5 of compound treatment and cardiomyocytes were stained with antibodies against a-actinin while cell nuclei were stained with DAPI. Image acquisition and phenotypic analysis was performed using an Image-Xpress Micro XL automated microscope (Molecular Devices).
Inhibition of cellular hypertrophy is indicated as IC50 [nM]. Compounds having an activity designated as “A” provided an IC50≤500 nM; compounds having an activity designated as “B” provided an 500 nM<IC50≤1000 nM; compounds having an activity designated as “C” provided an IC50>1000 nM.

T1 sequence (P34947 whole entry): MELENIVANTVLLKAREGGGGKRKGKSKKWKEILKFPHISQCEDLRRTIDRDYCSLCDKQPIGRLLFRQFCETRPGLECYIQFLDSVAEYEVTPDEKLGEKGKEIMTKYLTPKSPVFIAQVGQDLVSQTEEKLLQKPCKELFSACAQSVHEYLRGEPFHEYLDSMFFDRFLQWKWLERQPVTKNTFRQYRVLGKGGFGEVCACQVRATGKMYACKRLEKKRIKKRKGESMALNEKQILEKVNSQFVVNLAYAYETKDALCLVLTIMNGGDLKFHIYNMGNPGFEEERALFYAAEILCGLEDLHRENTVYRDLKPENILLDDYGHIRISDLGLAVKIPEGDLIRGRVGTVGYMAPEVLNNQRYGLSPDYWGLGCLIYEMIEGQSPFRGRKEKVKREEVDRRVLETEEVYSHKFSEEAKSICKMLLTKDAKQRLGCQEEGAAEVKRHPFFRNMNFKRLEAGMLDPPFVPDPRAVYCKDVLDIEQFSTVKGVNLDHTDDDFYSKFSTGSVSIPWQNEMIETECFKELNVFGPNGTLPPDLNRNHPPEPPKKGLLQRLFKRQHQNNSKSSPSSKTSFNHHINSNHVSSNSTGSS

SMILES | IC50 [1] [µM] | IC50 [2] [µM] | IC50 [3] [µM]
COc1ccc([C@@H](C)NC(=O)/C=C/c2c[nH]c3ncc(-c4cccc(SC)c4)cc23)cc1OC [Example 254, (R,E)-N-(1-(3,4-dimethoxyphenyl)ethyl)-3-(5-(3-(methylthio)phenyl)-1H-pyrrolo[2,3-b]pyridin-3-yl)acrylamide] | ≤ 0.05 | > 10 | > 1
COc1ccc([C@@H](C)NC(=O)/C(C#N)=C/c2c[nH]c3ncc(-c4cnn(C5CCNCC5)c4)cc23)cc1OC [Example 89, (R,E)-2-cyano-N-(1-(3,4-dimethoxyphenyl)ethyl)-3-(5-(1-(piperidin-4-yl)-1H-pyrazol-4-yl)-1H-pyrrolo[2,3-b]pyridin-3-yl)acrylamide] | ≤ 0.05 | 1 to 10 | > 1
COc1ccc([C@@H](C)NC(=O)/C(C#N)=C/c2c[nH]c3ncc(OCCN(C)C)cc23)cc1OC [Example 104, (R,E)-2-cyano-N-(1-(3,4-dimethoxyphenyl)ethyl)-3-(5-(2-(dimethylamino)ethoxy)-1H-pyrrolo[2,3-b]pyridin-3-yl)acrylamide] | ≤ 0.05 | 1 to 10 | > 1
